According to the Kinase Knowledgebase extract (Sharma et al. 2016):

What follows are compounds tested against PIK3CD (Human) (UniProt O00329) (assay: Enzyme Assay).
Chain of PIK3CD (Human) (O00329 whole entry, looked up): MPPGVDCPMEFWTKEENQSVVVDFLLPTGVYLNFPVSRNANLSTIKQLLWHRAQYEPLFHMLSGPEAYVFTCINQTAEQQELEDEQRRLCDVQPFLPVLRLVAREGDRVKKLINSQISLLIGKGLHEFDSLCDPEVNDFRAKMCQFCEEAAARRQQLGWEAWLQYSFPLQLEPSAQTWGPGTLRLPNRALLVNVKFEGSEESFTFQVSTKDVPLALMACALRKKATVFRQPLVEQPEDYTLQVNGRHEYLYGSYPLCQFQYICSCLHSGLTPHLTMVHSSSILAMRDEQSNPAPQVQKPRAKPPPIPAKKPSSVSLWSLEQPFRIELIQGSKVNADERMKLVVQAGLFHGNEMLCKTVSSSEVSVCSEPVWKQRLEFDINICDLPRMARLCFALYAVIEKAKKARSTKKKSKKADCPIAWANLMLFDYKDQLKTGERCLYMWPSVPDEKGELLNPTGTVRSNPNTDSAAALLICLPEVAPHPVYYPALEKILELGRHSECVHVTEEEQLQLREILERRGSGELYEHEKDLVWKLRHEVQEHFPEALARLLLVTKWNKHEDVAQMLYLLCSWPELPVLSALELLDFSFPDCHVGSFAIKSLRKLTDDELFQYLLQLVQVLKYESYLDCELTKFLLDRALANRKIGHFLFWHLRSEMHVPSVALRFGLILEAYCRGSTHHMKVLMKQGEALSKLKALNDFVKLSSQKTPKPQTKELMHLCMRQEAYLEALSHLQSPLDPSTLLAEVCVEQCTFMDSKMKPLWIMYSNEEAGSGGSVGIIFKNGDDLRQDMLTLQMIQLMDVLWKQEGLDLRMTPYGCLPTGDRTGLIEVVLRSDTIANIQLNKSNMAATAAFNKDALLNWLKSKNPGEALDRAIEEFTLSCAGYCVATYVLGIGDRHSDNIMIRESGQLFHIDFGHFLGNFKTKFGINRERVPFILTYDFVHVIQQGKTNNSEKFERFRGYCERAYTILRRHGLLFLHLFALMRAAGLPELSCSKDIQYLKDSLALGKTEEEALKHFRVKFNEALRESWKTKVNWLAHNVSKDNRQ

Row | SMILES | IC50 [nM]
1 | CCn1ncc(-c2nc3c(OC4CCN(C(=O)C5CCOCC5)CC4)ncnc3n2C)c1C | 1100
2 | CCn1ncc(-c2nc3c(O[C@H]4CCN(S(=O)(=O)C(C)C)C4)ncnc3n2C)c1C | 530
3 | CCn1c(-c2cnc(C)nc2)nc2c(O[C@H]3CCN(S(=O)(=O)CC)C3)ncnc21 | 170
4 | CCC(=O)N1CC[C@H](Oc2ncnc3c2nc(-c2ccc(S(C)(=O)=O)cc2)n3C)C1 | 300
5 | CCn1c(-c2ccnc(OC)c2)nc2c(O[C@H]3CCN(C(=O)C4CC4)C3)ncnc21 | 20
6 | CCn1ncc(-c2nc3c(O[C@H]4CCN(C(=O)C5CC5)C4)ncnc3n2C)c1C | 6.3
7 | CCn1ncc(-c2nc3c(OC4CCN(C(=O)c5ccccc5)CC4)ncnc3n2C)c1C | 960
8 | Cn1c(-c2ccc(-n3ccnc3)cc2)nc2c(O[C@H]3CCN(C(=O)OC(C)(C)C)C3)ncnc21 | 330
9 | CCC(=O)N1CCC(Cc2ncnc3c2nc(-c2cnn(CC)c2C)n3C)C1 (stereo not drawn) | 250
10 | CCn1c(-c2ccc(C(F)(F)F)cc2)nc2c(O[C@H]3CCN(C(=O)C4CC4)C3)ncnc21 | 3.4
11 | CCC(=O)N1CC[C@H](Oc2ncnc3[nH]c(-c4cnn(CC)c4C)nc23)C1 | 24
12 | Cc1ncc(-c2nc3c(O[C@H]4CCN(C(=O)OC(C)(C)C)C4)ncnc3n2C)cn1 | 99
13 | CCn1ncc(-c2nc3c(O[C@H]4CCN(C(=O)c5ccccn5)C4)ncnc3n2C)c1C | 27
14 | CCn1c(-c2cnc(C)nc2C)nc2c(O[C@H]3CCN(C(=O)C4CC4)C3)ncnc21 | 44
15 | CN(C)c1ccc(-c2nc3c(O[C@H]4CCN(C(=O)OC(C)(C)C)C4)ncnc3n2C)cn1 | 65
16 | CCC(=O)N1CC[C@H](Oc2ncnc3c2nc(-c2ccc4[nH]ccc4c2)n3C)C1 | 37
17 | CCn1c(-c2cnc(C)nc2)nc2c(O[C@H]3CCN(C(=O)N4C5CCC4CC5)C3)ncnc21 | 10
18 | CCC(=O)N1CC[C@H](Oc2ncnc3c2nc(-c2ccc(OC)c(C)c2)n3C)C1 | 4.6
19 | CCNC(=O)c1nc2c(O[C@H]3CCN(C(=O)OC(C)(C)C)C3)ncnc2n1CC | 310
20 | CCn1ncc(-c2nc3c(O[C@H]4CCN(C(=O)CC#N)C4)ncnc3n2C)c1C | 38
21 | CCn1ncc(-c2nc3c(S[C@H]4CCN(c5ccncn5)C4)ncnc3n2C)c1C | 6
22 | CCn1ncc(-c2nc3c(O[C@H]4CCN(CC5CCCCC5)C4)ncnc3n2C)c1C | 300
23 | CCC(=O)N1CC[C@H](Oc2ncnc3c2nc(Oc2ccc(OC)c(F)c2)n3C)C1 | 120
24 | CCn1ncc(-c2nc3c(O[C@@H]4CCCN(C(=O)OC(C)(C)C)C4)ncnc3n2C)c1C | 4600

Row | SMILES | IC50 [nM]
25 | CCn1ncc(-c2nc3c(O[C@H]4CCNC4)ncnc3n2C)c1C | 2100
26 | CCC(=O)N1CC[C@H](Oc2ncnc3c2nc(-c2cnc4[nH]ccc4c2)n3C)C1 | 19
27 | CCn1c(-c2cnc(C)nc2)nc2c(O[C@H]3CCN(C(=O)CC(C)(C)N)C3)ncnc21 | 9.3
28 | COC1CC(c2nc3c(O[C@H]4CCN(C(=O)OC(C)(C)C)C4)ncnc3n2C)C1 (stereo partly drawn) | 2100
29 | CCn1ncc(-c2nc3c(CC4CCN(C(=O)OC(C)(C)C)C4)ncnc3n2C)c1C (stereo not drawn) | 560
30 | CCn1ncc(-c2nc3c(O[C@H]4CCN(C(=O)C5(C)CCOCC5)C4)ncnc3n2C)c1C | 28
31 | CCn1ncc(-c2nc3c(O[C@H]4CCN(C(=O)OC(C)C)C4)ncnc3n2C)c1C | 8.1
32 | CCn1ncc(-c2nc3c(O[C@H]4CCN(S(=O)(=O)CC)C4)ncnc3n2C)c1C | 200
33 | CCn1ncc(-c2nc3c(O[C@H]4CCN(C(=O)OC)C4)ncnc3n2C)c1C | 12
34 | CCn1c(-c2cnc(C)nc2)nc2c(O[C@H]3CCN(c4cc(C)ccn4)C3)ncnc21 | 4.1
35 | Cn1c(-c2ccc(N3CCOCC3)nc2)nc2c(O[C@H]3CCN(C(=O)OC(C)(C)C)C3)ncnc21 | 4400
36 | CCn1ncc(-c2nc3c(O[C@H]4CCN(C(=O)c5cc(C)n(C)c5C)C4)ncnc3n2C)c1C | 20
37 | CCn1c(-c2cnc(C)nc2)nc2c(O[C@H]3CCN(C(=O)C4CCOCC4)C3)ncnc21 | 8.5
38 | CCn1c(N(C)CCO)nc2c(O[C@H]3CCN(C(=O)OC(C)(C)C)C3)ncnc21 | 830
39 | CCn1c(-c2cnc(C)nc2)nc2c(O[C@H]3CCN(C(=O)N4CCC(C)(O)C4)C3)ncnc21 (stereo partly drawn) | 7.3
40 | CCn1c(-c2cnc(C)nc2)nc2c(O[C@H]3CCN(C(=O)OCCN(C)C)C3)ncnc21 | 38
41 | CCn1ncc(-c2nc3c(O[C@H]4CCN(C(=O)c5cnn6cc[nH]c56)C4)ncnc3n2C)c1C | 270
42 | CCn1c(-c2cnc(C)nc2)nc2c(O[C@H]3CCN(c4cncnc4)C3)ncnc21 | 47
43 | CCn1ncc(-c2nc3c(OC4CN(C(=O)OC(C)(C)C)C4)ncnc3n2C)c1C | 85
44 | CCn1ncc(-c2nc3c(O[C@H]4CCN(C(=O)C(C)(C)C)C4)ncnc3n2C)c1C | 22
45 | CCNC(=O)N1CC[C@H](Oc2ncnc3c2nc(-c2cnc(C)nc2)n3CC)C1 | 19
46 | CCC(=O)N1CC[C@H](Oc2ncnc3c2nc(-c2ccc(C(F)(F)F)nc2)n3C)C1 | 99
47 | CCn1c(-c2cnc(C)nc2)nc2c(O[C@H]3CCN(c4ccc(F)cc4)C3)ncnc21 | 18
48 | CCn1ncc(-c2nc3c(O[C@H]4CCN(C(=O)c5cc(C(C)C)n[nH]5)C4)ncnc3n2C)c1C | 109

Row | SMILES | IC50 [nM]
49 | CCn1c(-c2cnc(C)nc2)nc2c(O[C@H]3CCN(C(=O)N4CC(C)(OC)C4)C3)ncnc21 | 34
50 | CCn1ncc(-c2nc3c(O[C@H]4CCN(C(C)c5ccccc5)C4)ncnc3n2C)c1C (stereo partly drawn) | 270
51 | CCn1c(-c2cnc(C)nc2)nc2c(O[C@H]3CCCN(c4ccccn4)C3)ncnc21 | 73
52 | CCn1ncc(-c2nc3c(OC4CCN(C(=O)c5ccc6ccccc6c5)C4)ncnc3n2C)c1C (stereo not drawn) | 28
53 | CCn1c(-c2ccc(OC)cn2)nc2c(O[C@H]3CCN(C(=O)C4CC4)C3)ncnc21 | 240
54 | CCn1ncc(-c2nc3c(O[C@H]4CCN(C(=O)OCC(C)(C)C)C4)ncnc3n2C)c1C | 28
55 | CCn1c(-c2cnc(C)nc2)nc2c(O[C@H]3CCN(C(=O)N(C)C4CC4)C3)ncnc21 | 28
56 | CCn1c(-c2cnc(C)nc2)nc2c(O[C@H]3CCN(c4ccccn4)C3)ncnc21 | 1.7
57 | CCC(=O)N1CC[C@H](Oc2ncnc3c2nc(-c2cnc(OC)c(C(F)(F)F)c2)n3C)C1 | 7.8
58 | Cn1c(-c2cn[nH]c2)nc2c(O[C@H]3CCN(C(=O)OC(C)(C)C)C3)ncnc21 | 28
59 | CCn1ncc(-c2nc3c(OC4CCN(C(=O)COC)C4)ncnc3n2C)c1C (stereo not drawn) | 77
60 | CCn1ncc(-c2nc3c(O[C@H]4CCN(C(=O)c5cc(C)[nH]n5)C4)ncnc3n2C)c1C | 28
61 | CCn1ncc(-c2nc3c(O[C@H]4CCN(Cc5ccc[nH]5)C4)ncnc3n2C)c1C | 440
62 | CCCN1CC[C@H](Oc2ncnc3c2nc(-c2cnn(CC)c2C)n3C)C1 | 380
63 | CCn1ncc(-c2nc3c(O[C@H]4CCN(C(=O)Nc5cccc(C)c5)C4)ncnc3n2C)c1C | 650
64 | CCn1ncc(-c2nc3c(O[C@H]4CCN(C(=O)C5CCc6nnnn65)C4)ncnc3n2C)c1C (stereo partly drawn) | 23
65 | CCC(=O)N1CC[C@H](Oc2ncnc3c2nc(-c2ccc(OC)nc2)n3C)C1 | 10
66 | CCn1ncc(-c2nc3c(O[C@H]4CCN(C(=O)Oc5cccc(C(F)(F)F)c5)C4)ncnc3n2C)c1C | 300
67 | CCn1ncc(-c2nc3c(O[C@H]4CCN(C(=O)c5ccno5)C4)ncnc3n2C)c1C | 4.7
68 | CCn1ncc(-c2nc3c(O[C@H]4CCN(C(=O)c5cc(C)nn5C)C4)ncnc3n2C)c1C | 19
69 | CCn1ncc(-c2nc3c(O[C@@H]4CC[C@H](n5c(=O)[nH]c6ncccc65)C4)ncnc3n2C)c1C | 120
70 | CCC(=O)N1CC[C@H](Oc2ncnc3c2nc(-c2cnn(-c4ccccc4)c2C)n3C)C1 | 3.6
71 | Cn1c(-c2ccc(O)cc2)nc2c(O[C@H]3CCN(C(=O)OC(C)(C)C)C3)ncnc21 | 98
72 | CCNC(=O)N1CC[C@H](Oc2ncnc3c2nc(-c2cnn(CC)c2C)n3C)C1 | 10

Row | SMILES | IC50 [nM]
73 | CCn1c(-c2ccc(OC)nc2)nc2c(O[C@H]3CCN(C(=O)C4CC4)C3)ncnc21 | 1
74 | CCn1ncc(-c2nc3c(S[C@H]4CCN(C(=O)c5coc(C)n5)C4)ncnc3n2C)c1C | 25
75 | CCn1c(-c2ccc(OC)nc2)nc2c(O[C@H]3CCN(C(=O)C(C)C)C3)ncnc21 | 2.1
76 | CCn1ncc(-c2nc3c(O[C@H]4CCN(C(=O)C5CC(F)(F)C5)C4)ncnc3n2C)c1C | 13
77 | CCn1c(-c2cnc(C)nc2)nc2c(OC3CCN(C(=O)N(C)c4ccccc4)CC3)ncnc21 | 46
78 | CCn1c(N2CCC(C)C2)nc2c(O[C@H]3CCN(C(=O)OC(C)(C)C)C3)ncnc21 (stereo partly drawn) | 570
79 | CCn1ncc(-c2nc3c(O[C@H]4CCN(C(=O)c5cccnc5)C4)ncnc3n2C)c1C | 19
80 | CCc1oncc1C(=O)N1CC[C@H](Oc2ncnc3c2nc(-c2cnn(CC)c2C)n3C)C1 | 27
81 | CCn1c(-c2cnc(C)nc2)nc2c(O[C@H]3CCN(C(=O)N4CCC(C)(C)C4)C3)ncnc21 | 3.8
82 | CCn1c(-c2ccc(OC)nc2)nc2c(O[C@H]3CCN(C(=O)C4CC(F)(F)C4)C3)ncnc21 | < 1
83 | CCn1ncc(-c2nc3c(S[C@H]4CCN(C(=O)OCC(C)C)C4)ncnc3n2C)c1C | 30
84 | CCn1c(-c2cnc(C)nc2)nc2c(O[C@@H]3CN(C(=O)OC(C)(C)C)C[C@H]3O)ncnc21.CCn1c(-c2cnc(C)nc2)nc2c(O[C@H]3CN(C(=O)OC(C)(C)C)C[C@@H]3O)ncnc21 | 3.7
85 | CCn1c(N2CCC(C)CC2)nc2c(O[C@H]3CCN(C(=O)OC(C)(C)C)C3)ncnc21 | 380
86 | Cc1n[nH]cc1-c1nc2c(O[C@H]3CCN(C(=O)OC(C)(C)C)C3)ncnc2n1C | 13
87 | CCn1ncc(-c2nc3c(S(=O)(=O)[C@H]4CCN(C(=O)C5CCOCC5)C4)ncnc3n2C)c1C | 960
88 | CCC(=O)N1CC[C@H](Oc2ncnc3c2nc(C2=CCOCC2)n3CC)C1 | 93
89 | CCn1ncc(-c2nc3c(O[C@H]4CCN(C(=O)NC(C)C)C4)ncnc3n2C)c1C | 9.2
90 | CCn1ncc(-c2nc3c(O[C@H]4CCN(C(=O)c5ccc(N6CCN(C)CC6)cc5)C4)ncnc3n2C)c1C | 110
91 | CCn1c(-c2cnc(OC)c(C#N)c2)nc2c(O[C@H]3CCN(C(=O)C4CC4)C3)ncnc21 | 2.4
92 | Cn1c(-c2cncc3ccccc23)nc2c(O[C@H]3CCN(C(=O)OC(C)(C)C)C3)ncnc21 | 320
93 | CCC(=O)N1CC[C@H](Oc2ncnc3c2nc(-c2ccc(OC)c(C(F)(F)F)c2)n3C)C1 | 2.5
